The source of these data is US9464060B2, “Compounds” (TAKEDA PHARMACEUTICAL COMPANY LIMITED, priority 2013, dated 2016).

In assay [1] the test system is LPA5 receptor. The assay is described as follows: In vivo farnesyl pyrophosphate-induced hyperalgesia model (Randall-Selitto). As to conditions: rat, FPP-induced hyperalgesia. Here is the method: In Vivo Farnesyl Pyrophosphate-Induced Inflammatory Model
The FPP-induced hyperalgesia model is a pharmacodynamic rat model which involves inducing pain by injecting FPP, an agonist of LPA5 receptor, into the plantar surface of the hindpaw.
Withdrawal responses were reassessed at 30 and 90 minutes after injection of FPP in the ipsilateral paw.

The target of assay [2] is LPA5 receptor (Homo sapiens (Human), UniProt Q9H1C0). Nature of the assay: In vitro LPA5 receptor assay (LPA-driven intracellular calcium release, FLIPR). As to conditions: RH7777 cells expressing human LPA5 receptors; LPA at EC90. The assay is classed as cell-based. Here is the method: In Vitro LPA5 Receptor Assay
LPA5 receptor (Homo sapiens (Human), UniProt Q9H1C0), sequence (Q9H1C0 whole entry): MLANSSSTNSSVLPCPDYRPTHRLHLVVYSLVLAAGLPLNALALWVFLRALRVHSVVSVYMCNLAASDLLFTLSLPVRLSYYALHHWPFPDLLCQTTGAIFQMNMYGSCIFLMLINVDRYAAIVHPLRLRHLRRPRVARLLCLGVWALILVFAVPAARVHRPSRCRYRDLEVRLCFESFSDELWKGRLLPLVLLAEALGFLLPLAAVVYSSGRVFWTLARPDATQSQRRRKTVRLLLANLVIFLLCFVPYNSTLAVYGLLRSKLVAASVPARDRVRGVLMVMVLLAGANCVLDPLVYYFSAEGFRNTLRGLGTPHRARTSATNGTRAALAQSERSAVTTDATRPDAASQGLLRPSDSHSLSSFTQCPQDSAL
Engagement of the LPA5 receptor by its ligand, oleoyl-L-α-lysophosphatidic acid (LPA), leads to the release of intracellular stores of calcium into the cytoplasm mediated through a Gq-driven increase in inositol triphosphate (IP3) levels. Gq is a heterotrimeric G protein subunit that activates phospholipase C.
The ability of test compounds to prevent LPA-driven intracellular release of stored calcium from RH7777 cells expressing human LPA5 receptors was assayed by stimulating the cells with LPA in the presence of various test compounds to measure the test compounds'antagonism, i.e. activity in vitro.
(§1) Approximately 10,000 cells in normal culture medium (Minimal Essential Media, 10% Foetal Calf Serum) were dispensed per assay well in a black clear bottom poly-D-lysine coated 384 well plate (Corning). Cells were allowed to settle for thirty minutes at room temperature before being incubated overnight at 37° C., 5% CO2. Sixteen to twenty hours after dispensing, the cells were loaded with a calcium-sensitive fluorescent dye by replacing the culture medium with assay buffer (1× Hanks buffered saline, 25 mM HEPES, 0.1% w/v fatty acid free BSA (bovine serum albumin), pH7.4) containing 1.25 mM probenecid and 1× Calcium 5 Reagent (Molecular Devices). Cells were incubated at 37° C. for one hour to allow for dye uptake.
To test for antagonist activity, test compounds at a final concentration range between 0.32 nM-10 μM (diluted in assay buffer) were added to the assay wells and allowed to incubate for fifteen minutes. […] Ligand-dependent changes in intracellular calcium levels were determined by measuring changes in fluorescence of the dye over […] following excitation over […].

Another assay addresses human LPA1 receptors (Homo sapiens (Human), UniProt Q92633). Nature of the assay: In vitro LPA1 receptor assay (LPA-driven intracellular calcium release, FLIPR). The note with it: RH7777 cells expressing human LPA1 receptors; LPA at EC80. In kind it is cell-based. The protocol:
In Vitro LPA1 Receptor Assay
Engagement of the LPA1 receptor by its ligand, oleoyl-L-α-lysophosphatidic acid (LPA), leads to the release of intracellular stores of calcium into the cytoplasm mediated through a Gq-driven increase in inositol triphosphate (IP3) levels. Gq is a heterotrimeric G protein subunit that activates phospholipase C.
The ability of test compounds to prevent LPA-driven intracellular release of stored calcium from RH7777 cells expressing human LPA1 receptors was assayed by stimulating the cells with LPA in the presence of various test compounds to measure the test compounds' antagonism, i.e. activity in vitro.
as §1, with “(Dulbecco's Modified Eagle” for “(Minimal Essential”, “collagen” for “poly-D-lysine”, “(Beckton Dickinson).” for “(Corning).”
To test for antagonist activity, test compounds at a final concentration range between 0.32 nM-10 μM (diluted in assay buffer) were added to the assay wells and allowed to incubate for twenty five minutes. […] Ligand-dependent changes in intracellular calcium levels were determined by measuring changes in fluorescence of the dye over […] following excitation over […].
(In general: Calcium flux is commonly read through the fluorescence of an indicator in the cells.)

Assay [3] in a line: In vivo bleomycin induced scleroderma model. More on the design: species or system C57BL/6 mice. As to conditions: mice, bleomycin i.d.; treatment from Day 0 to Day 28. Here is the method:
In Vivo Bleomycin Induced Scleroderma Model Experimental Outline
Adult male C57BL/6 mice, aged 8-10 weeks, were assigned to groups and allowed to acclimatise for a week. On Day −1, the back skin of the animals was shaved. From Day 0, animals were administered with 100 μl of a 1 mg/ml solution of bleomycin sulphate in phosphate buffered saline (PBS) by intradermal injection in the shaved skin. Injections were repeated in a one square centimeter area every other day for four weeks. A group of ten animals (Control group) was injected with an identical volume of PBS. Animals were weighed at the beginning of the experiment on Day 0 and then twice weekly throughout the study. At the end of the experiment, on Day 28, animals were culled and samples of back skin were taken for further analysis. All groups were n=10; the vehicle was distilled water and the administration volume was 10 ml/kg for oral gavage (p.o.); administration volume was 25 μl for topical application.
Bodyweights were graphed along with the standard error of the mean (SEM); Skin samples (two punch biopsies per animal, 4 mm in diameter each) samples were hydrolyzed and hydroxyproline content of the samples was determined from analysis in a semi-automated process using a continuous flow analyzer. Autoanalyser readings were calibrated against hydroxyproline standards and collagen content calculated. […] Bleomycin administration induced a highly significant increase in skin collagen content when compared to the control, saline-injected, group (p<0.01).

Each structure is given as a SMILES string. Where a name gives a salt, the structure may show the parent alone.

human LPA1 receptors, sequence (Q92633 whole entry): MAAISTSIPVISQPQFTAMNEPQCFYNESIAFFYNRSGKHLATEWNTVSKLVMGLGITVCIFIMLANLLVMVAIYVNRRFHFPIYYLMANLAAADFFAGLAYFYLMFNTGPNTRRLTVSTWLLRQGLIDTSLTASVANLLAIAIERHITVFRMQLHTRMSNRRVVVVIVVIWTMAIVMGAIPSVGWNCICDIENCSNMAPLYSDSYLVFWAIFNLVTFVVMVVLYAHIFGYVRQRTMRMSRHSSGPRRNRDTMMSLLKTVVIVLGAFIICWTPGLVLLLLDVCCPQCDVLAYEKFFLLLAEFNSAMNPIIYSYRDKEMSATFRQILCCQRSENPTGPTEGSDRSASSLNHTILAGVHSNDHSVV

The IC50 is the midpoint of a concentration-inhibition curve. As for `O=C(O)c1ccc(CN(Cc2ccccc2)C(=O)c2ccc(Oc3ccccc3F)cc2)cc1` [Example 11, 4-((N-Benzyl-4-(2-fluorophenoxy)benzamido)methyl)benzoic acid], the “In vivo efficacy (minimum effective dose (MED) mg/kg)” value in the assay on LPA5 receptor [1] (route po) is on record as “≦10 mg/kg”. For the same compound, the IC50 on LPA5 receptor [2] and on human LPA1 receptors was 6 nM throughout.

On to `Cc1ccccc1Oc1ccc(C(=O)N(Cc2ccccc2)Cc2ccc(C(=O)O)cc2)cc1` [Example 24, 4-((N-Benzyl-4-(o-tolyloxy)benzamido)methyl)benzoic acid], for which, in the assay on LPA5 receptor [1] (route po), the “In vivo efficacy (minimum effective dose (MED)” value is 30 mg/kg. Besides, the IC50 was 7 nM on LPA5 receptor [2] and 11 nM at human LPA1 receptors.

Turning to `Cc1ccc(NC(=O)c2ccc(CN3CCN(C)CC3)cc2)cc1Nc1nccc(-c2cccnc2)n1` [Imatinib, Imatinib mesylate, reference compound], the “skin collagen content compared to the vehicle-treated group” value in assay [3] is listed as “non-significant reduction”.

Consider `O=C(O)c1ccc(CN(CC2CC2)C(=O)c2ccc(Oc3c(F)cccc3F)cc2)cc1` [Example 37, 4-((N-(Cyclopropylmethyl)-4-(2,6-difluorophenoxy)benzamido)-methyl)benzoic acid], for which the IC50 is 28 nM on LPA5 receptor [2] and 25 nM on human LPA1 receptors.

Regarding `CCN(Cc1ccc(C(=O)O)cc1)C(=O)c1ccc(Oc2ccccc2Cl)cc1` [Example 76, 4-((4-(2-Chlorophenoxy)-N-ethylbenzamido)methyl)benzoic acid], the IC50 at LPA5 receptor [2] is 140 nM; at human LPA1 receptors, 130 nM.

For the compound `COc1ccccc1Oc1ccc(C(=O)N(CCC(F)(F)F)Cc2ccc(C(=O)O)cc2)cc1` [Example 64, 4-((4-(2-Methoxyphenoxy)-N-(3,3,3-trifluoropropyl)-benzamido)methyl)benzoic acid], the IC50 at LPA5 receptor [2] worked out at 7 nM; at human LPA1 receptors, 9 nM.

As for `COc1ccccc1Oc1cnc(C(=O)N(Cc2ccc(C(=O)O)cc2)CC2CC2)nc1` [Example 84, 4-((N-(Cyclopropylmethyl)-5-(2-methoxyphenoxy)pyrimidine-2-carboxamido)methyl)benzoic acid], the IC50 came out at 91 nM on LPA5 receptor [2] and 170 nM at human LPA1 receptors.

In the case of `O=C(O)c1ccc(CN(C[C@H](O)Cc2ccccc2)C(=O)c2ccc(Oc3ccccc3F)cc2)cc1` [Example 20, (R)-4-((4-(2-Fluorophenoxy)-N-(2-hydroxy-3-phenylpropyl)-benzamido)methyl)benzoic acid], the figures for the IC50 at LPA5 receptor [2] and on human LPA1 receptors were 40 nM and 12 nM, respectively.

Turning to `CCCCN(Cc1ccc(C(=O)O)cc1)C(=O)c1ccc(Oc2ccccc2F)cc1` [Example 75, 4-((N-Butyl-4-(2-fluorophenoxy)benzamido)methyl)benzoic acid], the figures for the IC50 on LPA5 receptor [2] and at human LPA1 receptors were 22 nM and 31 nM, respectively.

Take `COc1cc(F)ccc1Oc1ccc(C(=O)N(Cc2ccc(C(=O)O)cc2)CC2CC2)cc1` [Example 68, 4-((N-(Cyclopropylmethyl)-4-(4-fluoro-2-methoxyphenoxy)benzamido)methyl)benzoic acid]: the results for the IC50 at LPA5 receptor [2] and at human LPA1 receptors were 10 nM and 13 nM, respectively.

For the compound `CC(F)(F)CN(Cc1ccc(C(=O)O)cc1)C(=O)c1ccc(Oc2ccccc2F)cc1` [Example 74, 4-((N-(2,2-Difluoropropyl)-4-(2-fluorophenoxy)benzamido)methyl)benzoic acid], the figures for the IC50 at LPA5 receptor [2] and at human LPA1 receptors were 98 nM and 40 nM, respectively.

For the compound `CCCN(Cc1ccc(C(=O)O)cc1)C(=O)c1ccc(Oc2ccccc2OC)cc1` [Example 62, 4-((4-(2-Methoxyphenoxy)-N-propylbenzamido)methyl)benzoic acid], the figures for the IC50 at LPA5 receptor [2] and at human LPA1 receptors were 9 nM and 5 nM, respectively.

Consider `O=C(O)c1ccc(CN(CCc2ccccc2)C(=O)c2ccc(Oc3ccccc3Cl)cc2)cc1` [Example 36, 4-((4-(2-Chlorophenoxy)-N-phenethylbenzamido)methyl)benzoic acid], for which the IC50 on LPA5 receptor [2] and on human LPA1 receptors was 24 nM each time.

Turning to `CC(C)CN(Cc1ccc(C(=O)O)cc1)C(=O)c1ccc(Oc2ccccc2F)cc1` [Example 4, 4-((4-(2-Fluorophenoxy)-N-isobutylbenzamido)methyl)benzoic acid], the “In vivo efficacy (minimum effective dose (MED)” value in the assay on LPA5 receptor [1] (route ip) turned out to be 1 mg/kg. In the assay with LPA5 receptor [1] (route po), the “In vivo efficacy (minimum effective dose (MED) mg/kg)” value is on record as “≦10 mg/kg”. Besides, the IC50 at LPA5 receptor [2] stood at 63 nM; at human LPA1 receptors it was 49 nM.

As to `O=C(O)c1ccc(CN(CCC(F)(F)F)C(=O)c2ccc(Oc3ccccc3F)cc2)cc1` [Example 71, 4-((4-(2-Fluorophenoxy)-N-(3,3,3-trifluoropropyl)benzamido)methyl)benzoic acid], the figures for the IC50 at LPA5 receptor [2] and on human LPA1 receptors were 83 nM and 59 nM, respectively.

For `COc1ccccc1Oc1ccc(C(=O)N(Cc2ccc(C(=O)O)cc2)CC(C)C)cc1` [Example 30, 4-((N-Isobutyl-4-(2-methoxyphenoxy)benzamido)methyl)benzoic acid], the IC50 on LPA5 receptor [2] and on human LPA1 receptors was 12 nM each time.

Consider `CC(C)CCN(Cc1ccc(C(=O)O)cc1)C(=O)c1ccc(Oc2ccccc2F)cc1` [Example 8, 4-((4-(2-Fluorophenoxy)-N-isopentylbenzamido)methyl)benzoic acid], for which the “In vivo efficacy (minimum effective dose (MED)” value in the assay with LPA5 receptor [1] (route po) is given as 100 mg/kg. For the same compound, the half-inhibitory concentration (IC50) on LPA5 receptor [2] is 32 nM; at human LPA1 receptors, 46 nM.

For the compound `Cc1cccc(F)c1Oc1ccc(C(=O)N(Cc2ccc(C(=O)O)cc2)CC2CC2)cc1` [Example 40, 4-((N-(Cyclopropylmethyl)-4-(2-fluoro-6-methylphenoxy)-benzamido)methyl)benzoic acid], the “In vivo efficacy (minimum effective dose (MED)” value in the assay on LPA5 receptor [1] (route po) was 60 mg/kg. The IC50 on LPA5 receptor [2] was 31 nM; at human LPA1 receptors, 160 nM.

For the compound `O=C(O)c1ccc(CN(CC(F)F)C(=O)c2ccc(Oc3ccccc3Cl)cc2)cc1` [Example 78, 4-((4-(2-Chlorophenoxy)-N-(2,2-difluoroethyl)benzamido)methyl)benzoic acid], the values for the IC50 on LPA5 receptor [2] and at human LPA1 receptors were 170 nM and 390 nM, respectively.

For the compound `COc1ccc(F)cc1Oc1ccc(C(=O)N(Cc2ccc(C(=O)O)cc2)CC2CC2)cc1` [Example 79, 4-((N-(Cyclopropylmethyl)-4-(5-fluoro-2-methoxyphenoxy)benzamido)methyl)benzoic acid], the half-maximal inhibitory concentration (IC50) at LPA5 receptor [2] worked out at 68 nM; on human LPA1 receptors it was 94 nM.

Consider `O=C(O)c1ccc(CN(CC2CC2)C(=O)c2ccc(Oc3ccccc3F)cc2F)cc1` [Example 54, 4-((N-(Cyclopropylmethyl)-2-fluoro-4-(2-fluorophenoxy)-benzamido)methyl)benzoic acid], for which the half-inhibitory concentration (IC50) on LPA5 receptor [2] is 26 nM; at human LPA1 receptors, 27 nM.

For the compound `O=C(O)c1ccc(CN(CC2CC2)C(=O)c2ncc(Oc3ccccc3F)cn2)cc1` [Example 83, 4-((N-(Cyclopropylmethyl)-5-(2-fluorophenoxy)pyrimidine-2-carboxamido)methyl)benzoic acid], the figures for the IC50 on LPA5 receptor [2] and on human LPA1 receptors were 350 nM and 540 nM, respectively.
